Experimental data: US20100267561A1, “HERBICIDAL PYRIDAZINONE DERIVATIVES” (priority 2007, published 2010)

How the values were obtained:
Format in all cases: in vivo
[1] = tested on: ducksalad (Heteranthera limosa); experiment: Test B flooded paddy test plant response
How it was run: (§1)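 Step one: raise plants to 2 leaves. Step two: flood pots 3 cm over the soil and apply compound into the water, keeping this depth. Step three: after 13–15 greenhouse days, score visually versus controls, 0–100, where 100 means complete control.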

rice (Oryza sativa) = experiment: Test B flooded paddy test plant response
How it was run: as §1

[2] = tested on: pigweed (Amaranthus retroflexus); experiment: Test B pre-/postemergence plant response
Excerpt: (§2) Seeds of plant species selected from blackgrass (Alopecurus myosuroides), downy bromegrass (Bromus tectorum), green foxtail (Setaria viridis), Italian ryegrass (Lolium multiflorum), wheat (Triticum aestivum), wild oat (Avena fatua), catchweed bedstraw (Galium aparine), bermudagrass (Cynodon dactylon), surinam grass (Brachiaria decumbens), cocklebur (Xanthium strumarium), corn (Zea mays), large crabgrass (Digitaria sanguinalis), woolly cupgrass (Eriochloa villosa), giant foxtail (Setaria faberii), goosegrass (Eleusine indica), johnsongrass (Sorghum halepense), kochia (Kochia scoparia), lambsquarters (Chenopodium album), morningglory (Ipomoea coccinea), eastern black (E.B.) nightshade (Solanum ptycanthum), yellow nutsedge (Cyperus esculentus), pigweed (Amaranthus retroflexus), common ragweed (Ambrosia elation), Russian thistle (Salsola iberica), soybean (Glycine max), common (oilseed) sunflower (Helianthus annuus), and velvetleaf (Abutilon theophrasti) were planted and treated preemergence with test chemicals formulated in a non-phytotoxic solvent mixture which included a surfactant.
(§3) At the same time, plants selected from these crop and weed species and also winter barley (Hordeum vulgare), canarygrass (Phalaris minor), chickweed (Stellaria media) and windgrass (Apera spica-venti) were treated with postemergence applications of some of the test chemicals formulated in the same manner. Plants ranged in height from 2 to 18 cm (1- to 4-leaf stage) for postemergence treatments.
(§4) Plant species in the flooded paddy test consisted of rice (Oryza sativa), umbrella sedge (Cyperus difformis), ducksalad (Heteranthera limosa) and barnyardgrass (Echinochloa crus-galli) grown to the 2-leaf stage for testing. At time of treatment, test pots were flooded to 3 cm above the soil surface, treated by application of test compounds directly to the paddy water, and then maintained at that water depth for the duration of the test. Treated plants and controls were maintained in a greenhouse for 13 to 15 days, after which time all species were compared to controls and visually evaluated. Plant response ratings, summarized in Table B, are based on a scale of 0 to 100 where 0 is no effect and 100 is complete control. A dash (-) response means no test result.

wild oat (Avena fatua) = experiment: Test B pre-/postemergence plant response
Excerpt: as §2, §3, §4

[3] = tested on: common (oilseed) sunflower (Helianthus annuus); experiment: Test B pre-/postemergence plant response; conditions: Preemergence
Excerpt: as §2, §3, §4

[4] = tested on: goosegrass (Eleusine indica); experiment: Test B pre-/postemergence plant response
Excerpt: as §2, §3, §4

[5] = tested on: eastern black (E.B.) nightshade (Solanum ptycanthum); experiment: Test B pre-/postemergence plant response; conditions: Preemergence
Excerpt: as §2, §3, §4

[6] = tested on: large crabgrass (Digitaria sanguinalis); experiment: Test B pre-/postemergence plant response
Excerpt: as §2, §3, §4

[7] = tested on: giant foxtail (Setaria faberii); experiment: Test B pre-/postemergence plant response
Excerpt: as §2, §3, §4

[8] = tested on: common ragweed (Ambrosia elation); experiment: Test B pre-/postemergence plant response
Excerpt: as §2, §3, §4

[9] = tested on: green foxtail (Setaria viridis); experiment: Test B pre-/postemergence plant response
Excerpt: as §2, §3, §4

[10] = tested on: johnsongrass (Sorghum halepense); experiment: Test B pre-/postemergence plant response
Excerpt: as §2, §3, §4

[11] = tested on: woolly cupgrass (Eriochloa villosa); experiment: Test B pre-/postemergence plant response
Excerpt: as §2, §3, §4

[12] = tested on: velvetleaf (Abutilon theophrasti); experiment: Test B pre-/postemergence plant response
Excerpt: as §2, §3, §4

[13] = Flood (flooded paddy test), 62 g ai/ha, scale 0 to 100, 0 no effect, 100 complete control
[14] = Flood (flooded paddy test), 125 g ai/ha, scale 0 to 100, 0 no effect, 100 complete control
[15] = Flood (flooded paddy test), 250 g ai/ha, scale 0 to 100, 0 no effect, 100 complete control
[16] = Flood, 31 g ai/ha, scale 0 to 100
[17] = 8 g ai/ha, postemergence, 0-100 scale
[18] = Postemergence, 16 g ai/ha, scale 0 to 100
[19] = Postemergence, 31 g ai/ha, scale 0 to 100, 0 no effect, 100 complete control
[20] = Postemergence, 62 g ai/ha, scale 0 to 100, 0 no effect, 100 complete control
[21] = Preemergence, 16 g ai/ha, scale 0 to 100 (0 no effect, 100 complete control)
[22] = Preemergence, 31 g ai/ha, scale 0 to 100 (0 no effect, 100 complete control)
[23] = Preemergence, 62 g ai/ha, scale 0 to 100
[24] = Preemergence, 8 g ai/ha, scale 0 to 100
[25] = 16 g ai/ha, scale 0 to 100 (0 no effect, 100 complete control)
[26] = 31 g ai/ha, scale 0 to 100 (0 no effect, 100 complete control)
[27] = Preemergence, 31 g ai/ha, 0 to 100 scale, 0 no effect, 100 complete control
[28] = Preemergence, 62 g ai/ha, 0 to 100 scale, 0 no effect, 100 complete control
[29] = Preemergence, 16 g ai/ha, scale 0 to 100
[30] = 62 g ai/ha, 0 to 100 scale, 0 no effect, 100 complete control

CCc1cc(-c2ccc(Cl)cc2)nn1-c1c(OC(=O)C(C)(C)C)cnn(C)c1=O [Compound 40]
Plant response rating, Ducksalad [1, 13]: 0
Plant response rating, Ducksalad [1, 14]: 0
Plant response rating, Ducksalad [1, 15]: 0
Plant response rating, Ducksalad [1, 16]: 0
Plant response rating, Rice (rice (Oryza sativa); [13]): 40
Plant response rating, Rice (rice (Oryza sativa); [14]): 70
Plant response rating, Rice (rice (Oryza sativa); [15]): 80
Plant response rating, Rice (rice (Oryza sativa); [16]): 35
Pigweed plant response rating [2, 17]: 0
Plant response rating, Pigweed [2, 18]: 0
Plant response rating, Pigweed [2, 19]: 0
Plant response rating, Pigweed [2, 20]: 0
Plant response rating, Pigweed [2, 21]: 0
Plant response rating, Pigweed [2, 22]: 0
Plant response rating, Pigweed [2, 23]: 0
Pigweed plant response rating [2, 24]: 0
Oat, Wild plant response rating (wild oat (Avena fatua); [17]): 95
Plant response rating, Oat, Wild (wild oat (Avena fatua); [18]): 100
Plant response rating, Oat, Wild (wild oat (Avena fatua); [19]): 100
Plant response rating, Oat, Wild (wild oat (Avena fatua); [20]): 100
Plant response rating, Oat, Wild (wild oat (Avena fatua); [21]): 85
Plant response rating, Oat, Wild (wild oat (Avena fatua); [22]): 90
Plant response rating, Oat, Wild (wild oat (Avena fatua); [23]): 95
Oat, Wild plant response rating (wild oat (Avena fatua); [24]): 60
Plant response rating, Sunflower [3, 25]: 0
Plant response rating, Sunflower [3, 26]: 0
Plant response rating, Sunflower ([3]; 62 g ai/ha, scale 0 to 100): 0
Sunflower plant response rating ([3]; 8 g ai/ha, scale 0 to 100): 0
Goosegrass plant response rating [4, 17]: 60
Plant response rating, Goosegrass [4, 18]: 75
Plant response rating, Goosegrass [4, 19]: 80
Plant response rating, Goosegrass [4, 20]: 100
Plant response rating, Goosegrass [4, 21]: 100
Plant response rating, Goosegrass [4, 27]: 100
Plant response rating, Goosegrass [4, 23]: 100
Goosegrass plant response rating [4, 24]: 98
Plant response rating, Nightshade, E. B. [5, 25]: 0
Plant response rating, Nightshade, E. B. [5, 26]: 0
Plant response rating, Nightshade, E. B. ([5]; 62 g ai/ha, scale 0 to 100): 0
Nightshade, E. B. plant response rating ([5]; 8 g ai/ha, scale 0 to 100): 0
Crabgrass, Large plant response rating [6, 17]: 70
Plant response rating, Crabgrass, Large [6, 18]: 98
Plant response rating, Crabgrass, Large [6, 19]: 98
Plant response rating, Crabgrass, Large [6, 20]: 100
Plant response rating, Crabgrass, Large [6, 21]: 100
Plant response rating, Crabgrass, Large [6, 27]: 100
Plant response rating, Crabgrass, Large [6, 23]: 100
Crabgrass, Large plant response rating [6, 24]: 45
Foxtail, Giant plant response rating [7, 17]: 100
Plant response rating, Foxtail, Giant [7, 18]: 100
Plant response rating, Foxtail, Giant [7, 19]: 100
Plant response rating, Foxtail, Giant [7, 20]: 100
Plant response rating, Foxtail, Giant [7, 21]: 100
Plant response rating, Foxtail, Giant [7, 27]: 100
Plant response rating, Foxtail, Giant [7, 23]: 100
Foxtail, Giant plant response rating [7, 24]: 100
Ragweed plant response rating [8, 17]: 0
Plant response rating, Ragweed [8, 18]: 0
Plant response rating, Ragweed [8, 19]: 0
Plant response rating, Ragweed [8, 20]: 0
Plant response rating, Ragweed [8, 21]: 0
Plant response rating, Ragweed [8, 22]: 0
Plant response rating, Ragweed [8, 23]: 0
Ragweed plant response rating [8, 24]: 0
Foxtail, Green plant response rating [9, 17]: 85
Plant response rating, Foxtail, Green [9, 18]: 95
Plant response rating, Foxtail, Green [9, 19]: 100
Plant response rating, Foxtail, Green [9, 20]: 100
Plant response rating, Foxtail, Green [9, 21]: 100
Plant response rating, Foxtail, Green [9, 27]: 100
Plant response rating, Foxtail, Green [9, 23]: 100
Foxtail, Green plant response rating [9, 24]: 90
Johnsongrass plant response rating [10, 17]: 0
Plant response rating, Johnsongrass [10, 18]: 0
Plant response rating, Johnsongrass [10, 19]: 98
Plant response rating, Johnsongrass [10, 20]: 100
Plant response rating, Johnsongrass [10, 21]: 95
Plant response rating, Johnsongrass [10, 27]: 98
Plant response rating, Johnsongrass [10, 23]: 98
Johnsongrass plant response rating [10, 24]: 90
Cupgrass, Woolly plant response rating [11, 17]: 98
Plant response rating, Cupgrass, Woolly [11, 18]: 98
Plant response rating, Cupgrass, Woolly [11, 19]: 100
Plant response rating, Cupgrass, Woolly [11, 20]: 100
Plant response rating, Cupgrass, Woolly [11, 21]: 100
Plant response rating, Cupgrass, Woolly [11, 27]: 100
Plant response rating, Cupgrass, Woolly [11, 23]: 100
Cupgrass, Woolly plant response rating [11, 24]: 15
Velvetleaf plant response rating [12, 17]: 0
Plant response rating, Velvetleaf [12, 18]: 0
Plant response rating, Velvetleaf [12, 20]: 0
Plant response rating, Velvetleaf [12, 21]: 0
Plant response rating, Velvetleaf [12, 22]: 0
Plant response rating, Velvetleaf [12, 28]: 0
Velvetleaf plant response rating [12, 24]: 0

C#CCOC(=O)Oc1cnn(C)c(=O)c1-n1nc(-c2ccc(Cl)cc2)cc1C [Compound 58]
Plant response rating, Ducksalad [1, 13]: 0
Plant response rating, Ducksalad [1, 15]: 45
Plant response rating, Rice (rice (Oryza sativa); [13]): 0
Plant response rating, Rice (rice (Oryza sativa); [15]): 60
Plant response rating, Pigweed [2, 22]: 0
Plant response rating, Pigweed [2, 28]: 0
Pigweed plant response rating [2, 24]: 0
Pigweed plant response rating [2, 29]: 0
Plant response rating, Oat, Wild (wild oat (Avena fatua); [22]): 80
Plant response rating, Oat, Wild (wild oat (Avena fatua); [28]): 95
Oat, Wild plant response rating (wild oat (Avena fatua); [24]): 80
Oat, Wild plant response rating (wild oat (Avena fatua); [29]): 80
Plant response rating, Sunflower [3, 26]: 0
Plant response rating, Sunflower [3, 30]: 0
Sunflower plant response rating ([3]; 8 g ai/ha, scale 0 to 100): 0
Sunflower plant response rating ([3]; 16 g ai/ha, scale 0 to 100): 0
Plant response rating, Goosegrass [4, 22]: 95
Plant response rating, Goosegrass [4, 28]: 100
Goosegrass plant response rating [4, 24]: 70
Goosegrass plant response rating [4, 29]: 85
Plant response rating, Nightshade, E. B. [5, 26]: 0
Plant response rating, Nightshade, E. B. [5, 30]: 0
Nightshade, E. B. plant response rating ([5]; 8 g ai/ha, scale 0 to 100): 0
Nightshade, E. B. plant response rating ([5]; 16 g ai/ha, scale 0 to 100): 0
Plant response rating, Crabgrass, Large [6, 22]: 90
Plant response rating, Crabgrass, Large [6, 28]: 100
Crabgrass, Large plant response rating [6, 24]: 50
Crabgrass, Large plant response rating [6, 29]: 75
Plant response rating, Foxtail, Giant [7, 22]: 100
Plant response rating, Foxtail, Giant [7, 28]: 100
Foxtail, Giant plant response rating [7, 24]: 55
Foxtail, Giant plant response rating [7, 29]: 95
Plant response rating, Ragweed [8, 22]: 0
Plant response rating, Ragweed [8, 28]: 0
Ragweed plant response rating [8, 24]: 0
Ragweed plant response rating [8, 29]: 0
Plant response rating, Foxtail, Green [9, 22]: 100
Plant response rating, Foxtail, Green [9, 28]: 100
Foxtail, Green plant response rating [9, 24]: 100
Foxtail, Green plant response rating [9, 29]: 100
Plant response rating, Johnsongrass [10, 22]: 40
Plant response rating, Johnsongrass [10, 28]: 60
Johnsongrass plant response rating [10, 24]: 0
Johnsongrass plant response rating [10, 29]: 0
Plant response rating, Cupgrass, Woolly [11, 22]: 100
Plant response rating, Cupgrass, Woolly [11, 28]: 100
Cupgrass, Woolly plant response rating [11, 24]: 75
Cupgrass, Woolly plant response rating [11, 29]: 80
Plant response rating, Velvetleaf [12, 22]: 0
Plant response rating, Velvetleaf [12, 28]: 0
Velvetleaf plant response rating [12, 24]: 0
Velvetleaf plant response rating [12, 29]: 0
